# Results: patent US11129870B2, “Compositions and methods for uncoupling TrkB receptor from PLC gamma 1 for the treatment of epilepsy and anxiety-like disorder” (DUKE UNIVERSITY, priority 2010, dated 2021)
# Where no end group is shown, it is not given here. [ ]: non-standard residue; d: D form. pY = N[C@@H](Cc1ccc(OP(=O)(O)O)cc1)C(=O)O
# Experiments:
# [1] = tested on: hippocampal neurons (CA3b); assay: NeuN and GFAP immunostaining of hippocampal CA3b 10 weeks after SE; assay type: in vivo, mouse
# Description: Neurons and astrocytes were visualized using antibodies against neuronal nuclei (mouse monoclonal to NeuN, 1:500; Millipore) and glial fibrillary acidic protein (rabbit polyclonal to GFAP, 1:1000; Sigma) detected with Alexafluor 488 coupled anti-mouse and Alexafluor 594 coupled anti-rabbit secondary antibodies (Molecular Probes), respectively. Images were captured using a Leica TCS SL confocal microscopy system equipped with a 63× oil-immersion objective lens. NeuN-positive cell counting was performed by an investigator blinded to the genotype and treatment conditions with ImageJ software (Ferreira, T. et al., (2011). The Image J User Guide) in a 260×260 μm field within the CA3b pyramidal cell layer. Mean counts were obtained from two adjacent rostral and two adjacent middle hippocampal sections ipsilateral to the infused amygdala.
# Ten weeks following SE, mice were anesthetized with pentobarbital (200 mg/kg, i.p.) and underwent intra-cardiac perfusion with PBS containing heparin (5 U/ml) followed by 4% paraformaldehyde. Brains were removed, frozen by slow immersion in isopentane chilled in dry ice, cryoprotected, and sectioned. Serial 40 μm coronal sections were cut through the forebrain spanning the entire hippocampus. Adjacent sections at two levels relative to bregma (˜1.68 mm posterior designated “rostral”) or (˜2.32 mm posterior designated “middle”) were stained for NeuN and GFAP as previously described (Mouri, G. et al., (2008) Brain Res 1213:140-151) and mean counts of NeuN positive cells were obtained from two adjacent rostral and two adjacent middle hippocampal sections ipsilateral to the infused amygdala by an observer blinded to treatment.
# [2] = tested on: kainic acid-induced status epilepticus; assay: Status epilepticus induced by kainic acid infusion into amygdala, peptide given i.v. before KA; assay type: in vivo, mouse
# Procedure: FIG. 15: Continuous limbic and tonic-clonic seizures (status epilepticus) were induced in awake, adult male WT C57BL/6 mice weighing 20-25 g by unilateral stereotaxic microinjection of 0.3 μg kainic acid (KA) in a volume of 0.2 μl PBS, pH 7.4, into the right basolateral amygdala nucleus. Seven to nine days prior to KA infusion, a guide cannula was placed in the right amygdala under pentobarbital anesthesia using the following stereotactic coordinates relative to bregma: AP, −0.94 mm; ML, −2.85 mm; and DV, −3.75 mm (AP, anterior-posterior; ML, medio-lateral; DV, dorso-ventral); additionally, a bipolar EEG recording electrode was implanted into contralateral dorsal hippocampus: AP, −2.00 mm; ML, 1.60 mm; and DV, −1.53 mm. Phospho-Tat-pTrkBY816 or Scr-phospho-Tat-pTrkBY816 was injected intravenously through tail vein before amygdala KA infusion. EEG and mice behavior were recorded by EEG recording device and video camera respectively for 45 min following infusion of KA. Design of the time course and dose response experiments are presented in top and bottom panels respectively.
# As described previously, microinjection of kainic acid into the right amygdala of awake, adult mice reliably induces continuous limbic and clonic motor seizures accompanied by electrographic evidence of seizure activity as detected by EEG recording electrode in the contralateral hippocampus. Status epilepticus is terminated by intraperitoneal administration of diazepam 45 minutes following infusion of kainic acid.
# We asked whether intravenous infusion of Tat-pTrkBY816 via tail vein inhibited status epilepticus induced by microinjection of kainic acid into the right amygdala (FIG. 15). […] The inhibition of status epilepticus was also dose dependent. […] Whereas a dose of 1 mg/kg of Tat-pTrkBY816 was ineffective, doses of 3 mg/kg and 10 mg/kg effected a striking inhibition such that status epilepticus was prevented in at least 70% of animals (FIG. 17, top). By contrast, kainic acid induced status epilepticus in all animals pretreated with the control scr-Tat-pTrkBY816 regardless of dose (FIG. 17, top).
# Surgery and microinfusion studies provided in Examples 10-14 were performed as described here. Surgery and microinfusion of KA into right amygdala of adult mice was performed as previously described (Liu, G. et al., (2013) Neuron 79:31-38). Briefly, mice were anesthetized with pentobarbital (60 mg/kg, intraperitoneally [i.p.]) and placed in a stereotaxic frame. A guide cannula was stereotactically placed above the right amygdala (coordinates from bregma: AP=−1.2 mm; ML=3.0 mm). A bipolar electrode was placed in the left dorsal hippocampus (coordinates from bregma: AP=−2.0 mm; ML=−1.6 mm; DV=−1.5 mm). A ground electrode connected to a screw was placed in the skull above the cerebellum. After a postoperative recovery period of 7 days, the animal was gently restrained and an infusion cannula was inserted into the right amygdala through the guide cannula at the depth of 3.7 mm below dura. Either KA (0.3 μg in 0.5 μl PBS) or vehicle control (0.5 μl of PBS) was infused into the right basolateral amygdala at the rate of 0.11 μl per minute. The infusion cannula was left in the right amygdala for two additional minutes before being withdrawn from the guide cannula. Animals were housed individually for time locked electroencephalogram (EEG) telemetry and video monitoring with food and water ad libitum.
# Emergence of SE was typically evident in EEG recordings 5-10 min after KA infusion. The behavioral seizures associated with electrographic seizures typically consisted of immobility, followed by facial automatisms, unilateral or bilateral forelimb clonus, and whole body clonus. Tonic-clonic seizures with loss of posture and jumping also occurred during the seizures (Mouri, G. et al., (2008) Brain Res 1213:140-151). For experiments in which p816 or Scr was administered prior to SE, mice were monitored for 45 min following KA infusion. […]
# [3] = tested on: TrkB-mediated activation of PLCγ1; assay: BDNF-mediated activation of PLCγ1 (p-PLCγ1 Y783 western blot) in cultured cortical neurons; assay type: cell-based, rat; details: for BDNF-mediated increase of p-PLC γ-1/PLC γ-1 ratio (quantified, FIG. 10): 10-120 min pretreatment, 120 min p<0.05; for inhibition of BDNF-mediated increased p-PLCγ1 783: preincubation 60-120 min, BDNF 10 ng/ml
# [4] = tested on: ERK; assay: BDNF-mediated increase of p-ERK in cultured cortical neurons (western blot); assay type: cell-based, rat; details: 10 μM, 10-120 min pretreatment
substance,measurement,setting,value
YGRKKRRQRRR-LQNLAKASPVpYLDI (YGRKKRRQRRRLQNLAKASPV[pY]LDI) [pY816],reactive gliosis (enlarged GFAP-immunoreactive cells) in CA3b,[1],attenuated
same,reduction of neuron loss,[1]; compared to Scr treatment,~30%
same,inhibition of status epilepticus,"[2]; 1 mg/kg i.v., six hours prior to KA",ineffective
same,animals in which status epilepticus was prevented,"[2]; 3 mg/kg i.v., six hours prior to KA",at least 70%
same,earliest time at which inhibitory effects were evident following i.v. infusion,[2]; 10 mg/kg i.v.,10 min
same,inhibition of status epilepticus remitted by,[2]; 10 mg/kg i.v.,≤ 72 h
same,peak of inhibition of status epilepticus (pretreatment interval),[2]; 10 mg/kg i.v.,0.5 h
same,persistence of inhibition of status epilepticus,[2]; 10 mg/kg i.v.,24 h
same,return of seizure inhibition to control levels by,[2]; 10 mg/kg i.v.,≤ 72 h
same,inhibition of status epilepticus (time course),"[2]; 10 mg/kg i.v., 0.16-72 hr prior to KA",striking time dependent inhibition of status epilepticus
same,status epilepticus at 0.5 hour pretreatment,"[2]; 10 mg/kg i.v., 0.5 hour prior to KA",eliminated altogether
same,maximal inhibition of convulsive motor and electrographic seizures,"[2]; 10 mg/kg i.v., 6 hr prior to KA",90%
same,latency to the onset of status epilepticus,"[2]; 10 mg/kg i.v., compared to scrambled control peptide 10 mg/kg",prolonged
same,animals in which status epilepticus was prevented,"[2]; 10 mg/kg i.v., six hours prior to KA",at least 70%
same,increase of latency to onset of status epilepticus,"[2]; 10 mg/kg i.v., six hours prior to KA, compared to Scr-phospho-Tat-pTrkBY816",3 fold
same,inhibition of convulsive motor and electrographic seizures persisting for 24 hr,"[2]; 10 mg/kg i.v., up to 24 hr prior to KA",80-90%
same,onset of inhibition of status epilepticus (pretreatment interval),"[2]; 10 mg/kg i.v., earliest time tested",0.16 h
same,latency to onset of behavioral status epilepticus (dose response),"[2]; 1, 3, 10 mg/kg i.v., six hours prior to KA",increased the latency to onset of behavioral status epilepticus in a dose dependent fashion
same,inhibition of BDNF-mediated activation of PLCγ1 (pPLCγ1 783 immunoreactivity),"[3]; 0.1 μM, 90 mins preincubation, BDNF 10 ng/ml 15 mins",did not inhibit
same,inhibition of BDNF-induced increase of pPLCγ1 783,"[3]; 1 μM, 90 mins preincubation, BDNF 10 ng/ml 15 mins",limited the BDNF-induced increase of pPLCγ1 783 in a concentration dependent manner
same,"BDNF-mediated increase of p-PLC γ-1/PLC γ-1 ratio (quantified, FIG. 10)",[3]; 10 μM,inhibited the BDNF-mediated increase of p-PLC γ-1/PLC γ-1 ratio in a time dependent manner
same,inhibition of BDNF-mediated PLCγ1 activation,"[3]; 10 μM, 60 min preincubation, compared to Scr",68.2%
same,inhibition of BDNF mediated PLCγ1 activation,"[3]; 10 μM, 90 min preincubation, compared to Scr",79.3%
same,inhibition of BDNF-induced increase of pPLCγ1 783,"[3]; 10 μM, 90 mins preincubation, BDNF 10 ng/ml 15 mins",limited the BDNF-induced increase of pPLCγ1 783 in a concentration dependent manner
same,inhibition of BDNF-mediated PLCγ1 activation,"[3]; 10 μM, 120 min preincubation, compared to Scr",94.5%
same,inhibition of BDNF-mediated increased p-PLCγ1 783,[3]; 10 μM,inhibited BDNF-mediated increased p-PLCγ1 783
same,"BDNF-mediated increase of the p-ERK/ERK ratio (quantified, FIG. 12)",[4],Neither the Phospho-Tat-TrkBY816 nor the Scr-phospho-Tat-TrkBY816 peptide inhibited
"YGRKKRRQRRRLVApYQLKIAPNDLS (YGRKKRRQRRRLVA[pY]QLKIAPNDLS) [Scr, reference compound]",reduction of neurons (NeuN immunoreactive cells) in CA3b hippocampus,[1]; compared to PBS-infused controls,~50%
same,animals in which kainic acid induced status epilepticus,[2]; 10 mg/kg i.v. at different times prior to KA,23 of 24
same,KA-induced seizures following i.v. infusion of peptide,[2]; i.v. prior to KA infusion into amygdala,prolonged convulsive motor and electrographic seizures
same,animals in which kainic acid induced status epilepticus,"[2]; regardless of dose (1, 3, 10 mg/kg), six hours prior to KA",all animals
same,"BDNF-mediated increase of p-PLC γ-1/PLC γ-1 ratio (quantified, FIG. 10)",[3]; 10 μM,ineffective
same,inhibition of BDNF-mediated increased p-PLCγ1 783,[3]; 10 μM,no inhibition was evident
same,"BDNF-mediated increase of the p-ERK/ERK ratio (quantified, FIG. 12)",[4],Neither the Phospho-Tat-TrkBY816 nor the Scr-phospho-Tat-TrkBY816 peptide inhibited
